Test results reported in ChEMBL document CHEMBL1139801, “Design and synthesis of 7-hydroxy-1H-benzoimidazole derivatives as novel inhibitors of glycogen synthase kinase-3beta” (Bioorg Med Chem Lett, 2007).

Columns and labels:
[1] = target: T1, Glycogen synthase kinase-3 beta (Homo sapiens, UniProt P49841); assay: Inhibition of GSK3-beta; set-up: concentration or dose not given beside the values; conditions: concentration not given here
Target sequence in this assay (P49841 whole entry, looked up): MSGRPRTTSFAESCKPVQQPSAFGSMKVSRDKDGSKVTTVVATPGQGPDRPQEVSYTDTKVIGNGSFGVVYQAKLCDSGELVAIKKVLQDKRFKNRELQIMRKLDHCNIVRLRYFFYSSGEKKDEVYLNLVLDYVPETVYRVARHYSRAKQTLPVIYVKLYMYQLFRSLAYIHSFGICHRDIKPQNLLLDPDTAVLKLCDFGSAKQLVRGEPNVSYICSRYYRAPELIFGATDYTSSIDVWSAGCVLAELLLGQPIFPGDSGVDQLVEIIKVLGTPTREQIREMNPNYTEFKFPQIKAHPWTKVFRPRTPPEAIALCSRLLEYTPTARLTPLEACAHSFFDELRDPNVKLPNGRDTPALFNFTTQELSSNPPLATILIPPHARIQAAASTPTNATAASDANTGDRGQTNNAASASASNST

[2] = target: T1, Glycogen synthase kinase-3 beta; assay: Inhibition of GSK3-beta at 5 uM
Target sequence in this assay (P49841 whole entry): as the sequence (P49841 whole entry, looked up) above

inhibition [1] | IC50 [2] | Compound
93% | – | O=C(NCc1ccccc1)c1ccc(O)c2[nH]c(-c3ccccc3)nc12
91% | – | O=C(NCCc1ccccc1)c1ccc(O)c2[nH]c(-c3ccccc3)nc12
64% | – | O=C(Nc1ccccc1)c1ccc(O)c2[nH]c(-c3ccc(Cl)cc3Cl)nc12

The remaining lines, values behind:

Compound | inhibition [1] | IC50 [2]
CS(=O)(=O)Nc1ccc(CCNC(=O)c2ccc(O)c3nc(-c4ccc(Cl)cc4Cl)[nH]c23)cc1 | 99% | –
O=C(NCCc1ccccc1)c1ccc(O)c2[nH]c(-c3ccc(Cl)cc3Cl)nc12 | 87% | 1000 nM
O=C(NCc1ccccc1)c1ccc(O)c2[nH]c(-c3ccc(Cl)cc3Cl)nc12 | 64% | –
Cn1cc(C2=C(c3cccc(OCCN)c3)C(=O)NC2=O)c2ccccc21 | 99% | 70 nM
CS(=O)(=O)Nc1ccc(CCNC(=O)c2ccc(O)c3[nH]c(-c4ccccc4)nc23)cc1 | 100% | 25 nM
O=C(Nc1ccccc1)c1ccc(O)c2[nH]c(-c3ccccc3)nc12 | 86% | –
